Tests used:
[1] = target: Mitogen-activated protein kinase 3 (Homo sapiens) (UniProt P27361); test: Percentage ERK1 activity remaining in the presence of 3uM inhibitor
[2] = target: Ribosomal protein S6 kinase alpha-5 (Homo sapiens) (UniProt O75582); test: Percentage MSK1 activity remaining in the presence of 3uM inhibitor
[3] = target: T1, Mitogen-activated protein kinase 15 (Homo sapiens) (UniProt Q8TD08); test: Percentage ERK8 activity remaining in the presence of 3uM inhibitor
T1 sequence (whole entry): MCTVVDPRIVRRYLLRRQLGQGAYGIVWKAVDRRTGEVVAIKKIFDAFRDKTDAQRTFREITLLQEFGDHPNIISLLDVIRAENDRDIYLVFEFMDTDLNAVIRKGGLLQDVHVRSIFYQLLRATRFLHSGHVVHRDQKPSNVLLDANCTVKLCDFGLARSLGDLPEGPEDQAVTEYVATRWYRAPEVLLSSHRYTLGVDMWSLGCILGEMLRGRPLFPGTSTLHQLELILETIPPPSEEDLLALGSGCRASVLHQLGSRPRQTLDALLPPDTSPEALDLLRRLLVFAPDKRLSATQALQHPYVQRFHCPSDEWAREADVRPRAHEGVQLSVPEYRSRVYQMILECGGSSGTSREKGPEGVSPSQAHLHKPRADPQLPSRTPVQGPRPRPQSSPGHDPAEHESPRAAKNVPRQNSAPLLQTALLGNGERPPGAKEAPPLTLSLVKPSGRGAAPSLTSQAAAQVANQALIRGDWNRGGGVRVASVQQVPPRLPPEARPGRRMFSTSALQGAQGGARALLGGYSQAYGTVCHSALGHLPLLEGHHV

[4] = target: T2, Dual specificity tyrosine-phosphorylation-regulated kinase 2 (Homo sapiens) (UniProt Q92630); test: Percentage DYRK2 activity remaining in the presence of 3uM inhibitor
T2 sequence (whole entry): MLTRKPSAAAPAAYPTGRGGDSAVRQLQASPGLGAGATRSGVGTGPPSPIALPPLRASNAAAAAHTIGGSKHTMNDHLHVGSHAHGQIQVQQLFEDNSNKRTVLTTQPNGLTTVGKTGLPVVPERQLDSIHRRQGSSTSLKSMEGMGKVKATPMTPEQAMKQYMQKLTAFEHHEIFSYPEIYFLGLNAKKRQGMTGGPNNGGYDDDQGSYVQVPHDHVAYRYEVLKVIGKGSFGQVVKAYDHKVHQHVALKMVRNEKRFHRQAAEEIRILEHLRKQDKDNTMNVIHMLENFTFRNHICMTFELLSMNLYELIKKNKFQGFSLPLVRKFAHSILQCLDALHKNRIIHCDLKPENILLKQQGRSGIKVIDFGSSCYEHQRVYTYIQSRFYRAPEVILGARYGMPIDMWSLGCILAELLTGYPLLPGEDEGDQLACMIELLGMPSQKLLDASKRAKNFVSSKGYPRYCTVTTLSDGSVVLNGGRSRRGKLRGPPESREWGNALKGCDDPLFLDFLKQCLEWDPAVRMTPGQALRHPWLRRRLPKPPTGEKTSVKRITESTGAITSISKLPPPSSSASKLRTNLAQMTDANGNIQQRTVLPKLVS

[5] = target: RAC-alpha serine/threonine-protein kinase (Homo sapiens) (UniProt P31749); test: Percentage PKBalpha activity remaining in the presence of 3uM inhibitor
Chain of RAC-alpha serine/threonine-protein kinase (Homo sapiens) (P31749 whole entry): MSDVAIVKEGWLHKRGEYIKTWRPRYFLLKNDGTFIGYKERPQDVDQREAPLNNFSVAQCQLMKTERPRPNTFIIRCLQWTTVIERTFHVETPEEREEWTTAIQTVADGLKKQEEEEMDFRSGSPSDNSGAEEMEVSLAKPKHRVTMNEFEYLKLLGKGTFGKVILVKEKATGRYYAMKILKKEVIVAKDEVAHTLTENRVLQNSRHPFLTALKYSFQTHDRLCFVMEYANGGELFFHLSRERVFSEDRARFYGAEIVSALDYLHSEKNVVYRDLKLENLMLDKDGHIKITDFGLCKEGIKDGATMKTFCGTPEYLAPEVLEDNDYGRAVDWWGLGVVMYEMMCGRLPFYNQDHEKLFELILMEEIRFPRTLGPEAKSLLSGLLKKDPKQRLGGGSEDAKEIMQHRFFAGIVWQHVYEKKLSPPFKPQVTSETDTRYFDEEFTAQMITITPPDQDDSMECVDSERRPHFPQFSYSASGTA

Ephrin type-A receptor 2 = Ephrin type-A receptor 2 (Homo sapiens, UniProt P29317); test: Inhibition of Eph-A2 in the presence of 50uM ATP
Chain of Ephrin type-A receptor 2 (P29317 whole entry): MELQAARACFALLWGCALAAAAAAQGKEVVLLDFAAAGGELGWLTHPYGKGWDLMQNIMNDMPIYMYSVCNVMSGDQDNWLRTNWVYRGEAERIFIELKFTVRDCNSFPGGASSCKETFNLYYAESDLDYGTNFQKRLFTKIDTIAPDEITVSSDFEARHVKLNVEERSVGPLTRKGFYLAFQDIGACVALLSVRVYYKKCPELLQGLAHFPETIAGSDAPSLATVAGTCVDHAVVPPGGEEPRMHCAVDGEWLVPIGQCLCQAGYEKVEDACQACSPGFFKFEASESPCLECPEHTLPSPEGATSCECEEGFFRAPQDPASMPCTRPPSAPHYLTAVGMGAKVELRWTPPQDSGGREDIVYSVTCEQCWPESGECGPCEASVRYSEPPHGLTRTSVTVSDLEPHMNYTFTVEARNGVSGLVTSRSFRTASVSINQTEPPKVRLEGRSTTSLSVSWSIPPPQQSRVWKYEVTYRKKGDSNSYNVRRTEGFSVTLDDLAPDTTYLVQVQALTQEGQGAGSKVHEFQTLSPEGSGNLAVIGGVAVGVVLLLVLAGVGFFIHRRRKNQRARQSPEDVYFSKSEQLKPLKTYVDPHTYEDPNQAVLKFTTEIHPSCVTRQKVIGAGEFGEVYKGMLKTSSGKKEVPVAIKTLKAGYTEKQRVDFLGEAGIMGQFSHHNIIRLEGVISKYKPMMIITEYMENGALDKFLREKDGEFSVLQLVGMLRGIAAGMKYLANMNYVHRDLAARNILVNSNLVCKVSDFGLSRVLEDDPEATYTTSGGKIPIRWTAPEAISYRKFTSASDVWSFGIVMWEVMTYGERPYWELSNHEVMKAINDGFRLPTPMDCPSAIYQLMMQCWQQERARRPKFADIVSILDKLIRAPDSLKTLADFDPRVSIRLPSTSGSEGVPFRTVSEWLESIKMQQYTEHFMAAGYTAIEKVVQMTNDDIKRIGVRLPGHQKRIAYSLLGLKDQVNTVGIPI

[6] = target: MAP kinase-interacting serine/threonine-protein kinase 2 (Homo sapiens) (UniProt Q9HBH9); test: Percentage MNK2 activity remaining in the presence of 2uM inhibitor
Chain of MAP kinase-interacting serine/threonine-protein kinase 2 (Homo sapiens) (Q9HBH9 whole entry, looked up): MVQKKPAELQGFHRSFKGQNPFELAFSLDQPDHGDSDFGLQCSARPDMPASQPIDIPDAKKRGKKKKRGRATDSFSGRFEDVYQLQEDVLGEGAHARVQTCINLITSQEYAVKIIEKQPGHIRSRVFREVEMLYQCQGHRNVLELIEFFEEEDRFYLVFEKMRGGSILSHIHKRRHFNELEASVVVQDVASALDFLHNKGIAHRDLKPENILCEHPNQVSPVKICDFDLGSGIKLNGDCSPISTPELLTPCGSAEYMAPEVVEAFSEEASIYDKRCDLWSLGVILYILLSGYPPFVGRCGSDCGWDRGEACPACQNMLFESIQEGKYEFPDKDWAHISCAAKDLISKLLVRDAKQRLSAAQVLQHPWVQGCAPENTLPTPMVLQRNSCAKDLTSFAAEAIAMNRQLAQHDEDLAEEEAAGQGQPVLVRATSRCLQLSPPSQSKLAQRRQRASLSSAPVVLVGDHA

Homo sapiens = species: Homo sapiens; test: Percentage PHK activity remaining in the presence of 2uM inhibitor
[7] = target: Serine/threonine-protein kinase PAK 6 (Homo sapiens) (UniProt Q9NQU5); test: Percentage PAK6 activity remaining in the presence of 2uM inhibitor
Chain of Serine/threonine-protein kinase PAK 6 (Homo sapiens) (Q9NQU5 whole entry, looked up): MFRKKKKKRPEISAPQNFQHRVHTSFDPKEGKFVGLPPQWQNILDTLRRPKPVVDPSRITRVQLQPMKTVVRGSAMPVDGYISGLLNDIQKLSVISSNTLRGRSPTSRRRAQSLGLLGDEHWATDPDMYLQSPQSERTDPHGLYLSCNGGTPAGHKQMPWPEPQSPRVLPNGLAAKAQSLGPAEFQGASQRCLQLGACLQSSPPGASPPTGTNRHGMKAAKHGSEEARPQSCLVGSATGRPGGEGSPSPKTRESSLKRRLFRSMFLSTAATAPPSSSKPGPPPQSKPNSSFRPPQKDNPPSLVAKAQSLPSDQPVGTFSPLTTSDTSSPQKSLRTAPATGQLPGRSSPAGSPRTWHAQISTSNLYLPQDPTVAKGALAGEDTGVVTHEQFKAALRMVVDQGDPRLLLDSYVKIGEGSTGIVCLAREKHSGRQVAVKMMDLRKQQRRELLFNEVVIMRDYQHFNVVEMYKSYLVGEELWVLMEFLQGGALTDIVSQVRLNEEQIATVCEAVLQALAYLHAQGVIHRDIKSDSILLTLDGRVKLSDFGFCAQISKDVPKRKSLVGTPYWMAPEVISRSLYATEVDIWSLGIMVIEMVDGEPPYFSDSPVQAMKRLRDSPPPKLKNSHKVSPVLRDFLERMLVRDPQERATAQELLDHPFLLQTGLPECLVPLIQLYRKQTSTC

[8] = target: Serine/threonine-protein kinase pim-3 (Homo sapiens, UniProt Q86V86); test: Percentage PIM3 activity remaining in the presence of 2uM inhibitor; details: filed as antagonist
[9] = target: Serine/threonine-protein kinase PAK 5 (Homo sapiens) (UniProt Q9P286); test: Percentage PAK5 activity remaining in the presence of 2uM inhibitor
[10] = target: Ribosomal protein S6 kinase alpha-3 (Homo sapiens) (UniProt P51812); test: Percentage RSK2 activity remaining in the presence of 2uM inhibitor
Chain of Ribosomal protein S6 kinase alpha-3 (Homo sapiens) (P51812 whole entry): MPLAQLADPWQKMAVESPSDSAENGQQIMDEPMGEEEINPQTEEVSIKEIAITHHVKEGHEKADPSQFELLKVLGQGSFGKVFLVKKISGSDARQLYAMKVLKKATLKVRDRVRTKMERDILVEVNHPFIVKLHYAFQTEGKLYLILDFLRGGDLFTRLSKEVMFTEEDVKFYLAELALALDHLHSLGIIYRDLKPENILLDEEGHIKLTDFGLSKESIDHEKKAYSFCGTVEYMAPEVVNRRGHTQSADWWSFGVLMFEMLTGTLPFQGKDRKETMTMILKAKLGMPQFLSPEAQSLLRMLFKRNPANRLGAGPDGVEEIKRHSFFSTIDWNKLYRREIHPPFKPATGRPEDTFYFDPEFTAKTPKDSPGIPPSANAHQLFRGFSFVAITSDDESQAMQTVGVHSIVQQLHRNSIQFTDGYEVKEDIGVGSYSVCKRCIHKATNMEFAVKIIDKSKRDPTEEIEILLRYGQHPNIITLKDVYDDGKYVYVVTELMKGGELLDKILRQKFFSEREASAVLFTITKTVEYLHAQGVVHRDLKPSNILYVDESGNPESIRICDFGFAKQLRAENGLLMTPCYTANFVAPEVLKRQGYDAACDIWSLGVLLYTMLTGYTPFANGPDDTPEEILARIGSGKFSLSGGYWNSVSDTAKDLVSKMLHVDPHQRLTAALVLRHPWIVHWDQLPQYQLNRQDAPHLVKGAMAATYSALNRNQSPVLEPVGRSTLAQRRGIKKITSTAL

[11] = target: T3, Mitogen-activated protein kinase 13 (Homo sapiens) (UniProt O15264); test: Percentage p38delta activity remaining in the presence of 2uM inhibitor
T3 sequence (whole entry): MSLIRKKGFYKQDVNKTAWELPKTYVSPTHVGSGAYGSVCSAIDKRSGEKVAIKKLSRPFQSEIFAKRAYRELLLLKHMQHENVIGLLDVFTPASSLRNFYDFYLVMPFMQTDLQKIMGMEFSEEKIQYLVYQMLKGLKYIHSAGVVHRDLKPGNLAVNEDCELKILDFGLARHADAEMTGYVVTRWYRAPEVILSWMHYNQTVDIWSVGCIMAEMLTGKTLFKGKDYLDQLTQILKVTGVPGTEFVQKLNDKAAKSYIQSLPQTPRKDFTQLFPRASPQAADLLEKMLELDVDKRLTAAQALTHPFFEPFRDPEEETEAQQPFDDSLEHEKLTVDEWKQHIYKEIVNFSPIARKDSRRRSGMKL

[12] = target: cAMP-dependent protein kinase catalytic subunit alpha (Homo sapiens, UniProt P17612); test: Percentage PKA activity remaining in the presence of 2uM inhibitor
[13] = target: T4, 3-phosphoinositide-dependent protein kinase 1 (Homo sapiens) (UniProt O15530); test: Percentage PDK1 activity remaining in the presence of 2uM inhibitor
T4 sequence (whole entry): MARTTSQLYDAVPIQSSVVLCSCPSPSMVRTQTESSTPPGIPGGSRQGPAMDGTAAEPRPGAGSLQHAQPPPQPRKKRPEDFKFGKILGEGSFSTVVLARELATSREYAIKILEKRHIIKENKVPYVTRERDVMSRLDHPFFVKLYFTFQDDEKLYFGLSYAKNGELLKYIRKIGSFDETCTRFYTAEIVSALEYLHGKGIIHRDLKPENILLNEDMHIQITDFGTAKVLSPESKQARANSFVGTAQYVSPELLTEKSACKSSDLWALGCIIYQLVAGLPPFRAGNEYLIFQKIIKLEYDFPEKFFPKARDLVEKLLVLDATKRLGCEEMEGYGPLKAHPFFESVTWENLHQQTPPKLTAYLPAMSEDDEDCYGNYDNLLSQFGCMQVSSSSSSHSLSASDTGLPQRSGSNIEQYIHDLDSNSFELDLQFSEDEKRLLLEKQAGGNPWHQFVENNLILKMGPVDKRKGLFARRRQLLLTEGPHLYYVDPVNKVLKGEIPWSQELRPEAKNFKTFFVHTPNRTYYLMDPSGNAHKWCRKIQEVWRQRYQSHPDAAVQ

[14] = target: Dual specificity tyrosine-phosphorylation-regulated kinase 1A (Homo sapiens) (UniProt Q13627); test: Percentage DYRK1A activity remaining in the presence of 2uM inhibitor; details: filed as antagonist

Chain of Mitogen-activated protein kinase 3 (Homo sapiens) (P27361 whole entry): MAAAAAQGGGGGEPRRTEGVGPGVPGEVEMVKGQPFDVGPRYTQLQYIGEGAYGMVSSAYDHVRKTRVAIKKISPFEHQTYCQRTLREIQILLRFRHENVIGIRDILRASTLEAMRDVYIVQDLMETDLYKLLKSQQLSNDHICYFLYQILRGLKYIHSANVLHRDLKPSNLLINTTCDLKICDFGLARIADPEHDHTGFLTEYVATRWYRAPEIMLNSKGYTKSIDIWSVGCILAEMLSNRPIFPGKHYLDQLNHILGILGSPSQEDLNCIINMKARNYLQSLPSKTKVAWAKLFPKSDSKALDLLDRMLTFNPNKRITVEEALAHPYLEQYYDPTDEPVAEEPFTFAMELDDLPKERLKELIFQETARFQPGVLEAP
Chain of Ribosomal protein S6 kinase alpha-5 (Homo sapiens) (O75582 whole entry, looked up): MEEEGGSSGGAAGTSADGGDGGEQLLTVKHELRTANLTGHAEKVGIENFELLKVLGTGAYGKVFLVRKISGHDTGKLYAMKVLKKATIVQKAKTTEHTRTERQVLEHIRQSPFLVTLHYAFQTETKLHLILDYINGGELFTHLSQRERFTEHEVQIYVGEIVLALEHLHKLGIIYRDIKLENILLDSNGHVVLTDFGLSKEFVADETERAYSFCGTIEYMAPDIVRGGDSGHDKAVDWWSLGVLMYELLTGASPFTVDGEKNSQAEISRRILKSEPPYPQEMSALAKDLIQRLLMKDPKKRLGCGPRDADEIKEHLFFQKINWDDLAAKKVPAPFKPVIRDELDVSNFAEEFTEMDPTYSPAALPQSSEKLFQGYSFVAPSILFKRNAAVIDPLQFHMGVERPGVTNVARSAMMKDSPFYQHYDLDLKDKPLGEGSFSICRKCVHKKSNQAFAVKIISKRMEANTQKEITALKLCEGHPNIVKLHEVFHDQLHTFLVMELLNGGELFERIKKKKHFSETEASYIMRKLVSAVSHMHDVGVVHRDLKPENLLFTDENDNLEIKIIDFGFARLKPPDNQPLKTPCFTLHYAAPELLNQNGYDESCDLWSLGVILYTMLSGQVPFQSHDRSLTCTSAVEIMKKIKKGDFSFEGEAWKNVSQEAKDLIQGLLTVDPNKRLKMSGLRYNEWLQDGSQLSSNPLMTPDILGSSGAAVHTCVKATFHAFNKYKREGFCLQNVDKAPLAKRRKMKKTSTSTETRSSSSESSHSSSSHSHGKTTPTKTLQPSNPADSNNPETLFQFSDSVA

| Activity [1] [%] | Activity [2] [%] | Activity [4] [%] | Activity [5] [%] | IC50 (Ephrin type-A receptor 2) | Activity [6] [%] | Activity (Homo sapiens) [%] | Activity [7] [%] | Activity [8] [%] | Activity [9] [%] | Activity [10] [%] | Activity [11] [%] | Activity [12] [%] | Activity [13] [%] | Activity [14] [%] | Structure (SMILES) | Activity [3] [%] |
| --- | --- | --- | --- | --- | --- | --- | --- | --- | --- | --- | --- | --- | --- | --- | --- | --- |
| 92 | 75 | 91 | 82 | 760 nM (antagonist) | – | – | – | – | – | – | – | – | – | – | Cc1ccc(-c2c(C(=O)CF)n(CCCO)c3ncnc(N)c23)cc1 | 58 |
| – | – | – | – | – | 94 | 87 | 90 | 29 | 85 | 67 | 81 | 88 | 92 | 8 | Cn1cc(C2=C(c3ccc(Cl)cc3Cl)C(=O)NC2=O)c2ccccc21 | – |
